Results taken from PubChem BioAssay (NCI).
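96-well plates; 48 h exposure; 5 concentrations. Endpoints by linear interpolation between flanking doses. Not reached: highest tested concentration assigned. Here, GI50 denotes the concentration required for 50% inhibition of growth. TGI: total growth inhibition.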

What was measured:
Assay in all cases: growth of human tumour cells (NCI), 48 h
SNB-75 CNS = test system: SNB-75 CNS
HT29 colon = test system: HT29 colon
SK-MEL-5 melanoma = test system: SK-MEL-5 melanoma
SF-268 CNS = test system: SF-268 CNS
HCT-116 colon = test system: HCT-116 colon
IGROV1 ovarian = test system: IGROV1 ovarian
HL-60(TB) leukemia = test system: HL-60(TB) leukemia
SNB-19 CNS = test system: SNB-19 CNS
OVCAR-4 ovarian = test system: OVCAR-4 ovarian
COLO 205 colon = test system: COLO 205 colon

SMILES | GI50 (SNB-75 CNS) [µM] | TGI (SNB-75 CNS) [µM] | GI50 (HT29 colon) [µM] | TGI (HT29 colon) [µM] | GI50 (SK-MEL-5 melanoma) [µM] | TGI (SK-MEL-5 melanoma) [µM] | GI50 (SF-268 CNS) [µM] | TGI (SF-268 CNS) [µM] | GI50 (HCT-116 colon) [µM] | TGI (HCT-116 colon) [µM] | GI50 (IGROV1 ovarian) [µM] | TGI (IGROV1 ovarian) [µM] | GI50 (HL-60(TB) leukemia) [µM] | TGI (HL-60(TB) leukemia) [µM] | GI50 (SNB-19 CNS) [µM] | TGI (SNB-19 CNS) [µM] | GI50 (OVCAR-4 ovarian) [µM] | TGI (OVCAR-4 ovarian) [µM] | GI50 (COLO 205 colon) [µM] | TGI (COLO 205 colon) [µM]
CCc1n(Cc2ccc3ccccc3n2)cc[n+]1Cc1ccc2ccccc2n1 | 0.141 | 2.4 | 0.263 | 12 | 0.0653 | 1.02 | 0.453 | 14.2 | 1.35 | 29.7 | 0.214 | 16.7 | 0.0329 | 0.262 | 0.0687 | 10.7 | 0.0378 | 10.4 | 0.0596 | 0.705
CN1CCN(c2ccc(NC(=O)c3nc4ccc5[nH]ncc5c4c4c3CCCC4)cc2C(F)(F)F)CC1 | 5.5 | 12.1 | 1.02 | 3.06 | 1.53 | 5.23 | 3.89 | 19.3 | 0.814 | 1.5 | 0.821 | 1.73 | 0.969 | 2.1 | 1.39 | 4.58 | 1.45 | 6.81 | 0.84 | 1.68
O=C1C=C(NCCNC(=S)Nc2ccccc2)c2nccc3c2c1nc1ccccc13 | > 100 | > 100 | 44.6 | > 100 | 27.5 | > 100 | 53.7 | > 100 | 14 | > 100 | 56.8 | > 100 | 17.4 | > 100 | > 100 | > 100 | 92.7 | > 100 | 9.18 | > 100
COc1ccccc1/C=C1\CCC(CCN(C)C)(C2=CCCC2)C1=O (stereo not drawn) | – | 54.7 | – | 39.3 | – | 26.7 | – | 40.1 | – | 25.3 | – | 28.6 | – | 45.5 | – | 31.1 | – | 35.2 | – | 22.1
C=C1SC(=Nc2c(C)cc(C)cc2C)N(C(=O)c2sc3ccccc3c2Cl)C12CCCCC2 | > 100 | > 100 | 58.5 | > 100 | > 100 | > 100 | > 100 | > 100 | > 100 | > 100 | > 100 | > 100 | 16.5 | > 100 | > 100 | > 100 | > 100 | > 100 | > 100 | > 100
CC1(C)CC[C@H](Nc2ncc(C(F)(F)F)c(-c3c[nH]c4c(P(C)(C)=O)c(C#N)ccc34)n2)CN1 | 0.774 | 10.6 | < 0.0259 | > 27.7 | 0.0666 | 2.27 | 1.17 | 12.9 | < 0.01 | 12.1 | 0.0231 | 14.5 | < 0.01 | 2.37 | 0.0439 | > 54.3 | 0.365 | 6.89 | < 0.01 | 0.773
CC(C)CNCC(O)COc1ccc(C(C)(C)c2ccc(OCC(O)CNCC(C)C)cc2)cc1 (stereo not drawn) | 4 | 18.2 | 1.62 | 3.26 | 1.68 | 3.05 | 3.9 | 17.4 | 1.79 | 3.59 | 3.66 | 15.5 | 1.86 | 3.76 | 3.15 | 10.9 | 6.52 | 21.4 | 1.59 | 3.24
O=[N+]([O-])c1ccc(S(=O)Cc2ccccc2)c([N+](=O)[O-])c1 (stereo not drawn) | 12 | 25.2 | – | – | 9.08 | 21.1 | 13.4 | 26.6 | 1.29 | 2.55 | 14.1 | 33.9 | 2.21 | 5.2 | 14 | 27.6 | 1.5 | 2.93 | 1.68 | 3.05
COc1ccc(-c2oc3c(OC)c(OC)c(OC)c(O)c3c(=O)c2OC)cc1OC | – | 13.2 | – | > 78.2 | – | 41.7 | – | > 55.1 | – | > 100 | – | 23.2 | – | 26.1 | – | > 100 | – | > 100 | – | > 73.1
COc1cc(/C=C\c2ccccc2)cc(OC)c1OC | – | 6.9 | – | 14.1 | – | 9.12 | – | 59.2 | – | > 100 | – | > 100 | – | 6.34 | – | > 77.5 | – | > 61 | – | > 20.4
O=C([CH-]C(=O)c1ccccc1)c1ccccc1.O=C([CH-]C(=O)c1ccccc1)c1ccccc1.O=C([CH-]C(=O)c1ccccc1)c1ccccc1.[Nd+3].[OH3+] | 2.91 | 7.23 | 4.64 | 16.1 | 2.79 | 11.8 | 4.16 | 31.1 | 4.92 | 19.1 | 6.72 | 49.8 | 1.5 | 4.99 | 4.52 | 29.1 | 6.63 | 51.7 | 10.6 | 25.6
CS(=O)(=O)OCCN1CCN(C(=O)c2cccc3c(Nc4ccc(S(=O)(=O)N=C(N)N)cc4)c4ccccc4nc23)CC1 | – | > 100 | – | > 100 | – | > 100 | – | > 100 | – | > 100 | – | > 100 | – | > 100 | – | > 100 | – | > 100 | – | > 100
CCN(CC)CCNc1ccc([N+](=O)[O-])c2sc3ccccc3c(=O)c12 | 1.65 | 4.78 | 0.392 | 1.59 | 1.53 | 2.9 | 1.08 | 2.5 | 0.36 | 1.56 | 0.285 | 1.02 | 0.783 | 3.27 | 2.22 | 13 | 1.35 | 2.81 | 1.35 | 3.58
O=C(/C=C/c1ccccc1)CC1OC(=O)c2ccccc21 (stereo not drawn) | – | > 100 | – | > 100 | – | > 100 | – | > 100 | – | > 100 | – | > 100 | – | > 100 | – | > 100 | – | > 100 | – | > 100
